Results: US20230374015A1, “INHIBITORS OF FIBROBLAST GROWTH FACTOR RECEPTOR KINASES” (Kinnate Biopharma Inc., priority 2020, published 2023)

molecular target: FGFR2 (Homo sapiens, UniProt P21802); experiment: FGFR2 Kinase Protocol - Condition 2 (Reaction Biology HotSpot radiometric kinase assay, no preincubation); format: biochemical; conditions: poly[Glu:Tyr] (4:1) 0.2 mg/ml, ATP 100 microM, 2 hr room temperature
Experimental: Example 2: FGFR2 Kinase Protocol—Condition 2
The Reaction Biology HotSpot assay platform (http://www.reactionbiology.com) was used to measure kinase/inhibitor interactions as described previously (Anastassiadis et al., 2011). In brief, for each reaction, kinase and substrate were mixed in a buffer containing 20 mM HEPES (pH 7.5), 10 mM MgCl2, 1 mM EGTA, 0.02% Brij35, 0.02 mg/mL BSA, 0.1 mM Na3VO4, 2 mM DTT, and 1% DMSO. All compounds were in powder form and freshly solubilized in DMSO for assays. Compounds were then added to each reaction mixture via acoustic dispense using an ECHO 550 nanoliter dispenser. For Human FGFR2 wildtype testing, a peptide substrate, poly[Glu:Tyr] (4:1) was used to promote the reaction at a concentration of 0.2 mg/ml. For Human FGFR2 (V564F) testing, a peptide substrate, poly[Glu:Tyr] (4:1) was used to promote the reaction at a concentration of 0.2 mg/ml. ATP concentration for all assays was maintained at 100 micromolar. Compounds were tested in 10-dose IC50 mode with a 3-fold serial dilution. Compounds were added to plates and ATP was added directly to the wells. ATP (Sigma-Aldrich, St. Louis, MO 63178) and [g33P] ATP (specific activity 10 microCi/microliter) purchased at PerkinElmer (Boston, MA, 02118 Cat #BLU 003H250UC) were added at a final total concentration of 100 microM to each well with no preincubation. Reactions were carried out at room temperature for 2 hr and spotted onto P81 ion exchange cellulose chromatography paper (Reaction Biology). Filter paper was washed in 0.75% phosphoric acid to remove unincorporated ATP. The percent remaining kinase activity relative to a vehicle-containing (DMSO) kinase reaction was calculated for each kinase/inhibitor pair. IC50 values were calculated using Dotmatics Knowledge Solutions Studies curve fitting (Dotmatics, Bishops Stortford, UK, CM23).

Chain of FGFR2 (P21802 22-821): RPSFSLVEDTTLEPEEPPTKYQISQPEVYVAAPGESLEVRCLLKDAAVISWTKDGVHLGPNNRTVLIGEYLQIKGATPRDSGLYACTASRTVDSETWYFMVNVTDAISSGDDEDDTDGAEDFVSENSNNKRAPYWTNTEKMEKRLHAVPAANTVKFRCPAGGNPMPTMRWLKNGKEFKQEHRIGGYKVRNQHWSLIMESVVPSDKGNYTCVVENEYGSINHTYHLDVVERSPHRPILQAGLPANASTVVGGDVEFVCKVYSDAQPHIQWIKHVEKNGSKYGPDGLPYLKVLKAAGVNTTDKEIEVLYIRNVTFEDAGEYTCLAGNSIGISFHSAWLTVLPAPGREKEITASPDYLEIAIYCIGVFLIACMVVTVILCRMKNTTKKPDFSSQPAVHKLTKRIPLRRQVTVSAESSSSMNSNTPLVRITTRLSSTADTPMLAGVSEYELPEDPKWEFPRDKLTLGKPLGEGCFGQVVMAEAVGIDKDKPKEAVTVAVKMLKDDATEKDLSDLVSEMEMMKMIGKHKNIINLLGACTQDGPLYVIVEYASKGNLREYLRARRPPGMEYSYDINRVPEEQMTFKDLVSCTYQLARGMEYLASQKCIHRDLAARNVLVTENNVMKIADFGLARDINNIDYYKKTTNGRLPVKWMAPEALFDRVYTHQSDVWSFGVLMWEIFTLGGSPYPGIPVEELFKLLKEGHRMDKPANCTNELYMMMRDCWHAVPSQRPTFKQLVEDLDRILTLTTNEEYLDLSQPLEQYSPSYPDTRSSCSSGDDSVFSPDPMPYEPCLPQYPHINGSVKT

Row | IC50 [nM] | SMILES
1 | ≤ 100 | C=CC(=O)N1C[C@@H](n2nc(C#Cc3ccc4c(c3)nc(C)n4C)c3c(N)nccc32)C[C@@H]1CC#N [Example 43, 2-((2R,4S)-1-acryloyl-4-(4-amino-3-((1,2-dimethyl-1H-benzo[d]imidazol-5-yl)ethynyl)-1H-pyrazolo[4,3-c]pyridin-1-yl)pyrrolidin-2-yl)acetonitrile]
2 | ≤ 100 | C=CC(=O)N1C[C@@H](n2nc(C#Cc3c(F)cc4nn(C)cc4c3F)c3c(N)ncnc32)C[C@@H]1COC [Example 44, 1-((2R,4S)-4-(4-amino-3-((4,6-difluoro-2-methyl-2H-indazol-5-yl)ethynyl)-1H-pyrazolo[3,4-d]pyrimidin-1-yl)-2-(methoxymethyl)pyrrolidin-1-yl)prop-2-en-1-one]
3 | 100 to 1000 | C=CC(=O)N1C[C@@H](n2nc(C#Cc3c(F)cc4nn(C)cc4c3F)c3c(N)nccc32)C[C@@H]1COC [Example 45, 1-((2R,4S)-4-(4-amino-3-((4,6-difluoro-2-methyl-2H-indazol-5-yl)ethynyl)-1H-pyrazolo[4,3-c]pyridin-1-yl)-2-(methoxymethyl)pyrrolidin-1-yl)prop-2-en-1-one]
4 | ≤ 100 | C=CC(=O)N1C[C@@H](n2nc(C#Cc3ccc4c(c3)nc(C(F)(F)F)n4C)c3c(N)ncnc32)C[C@@H]1COC [Example 46, 1-((2R,4S)-4-(4-amino-3-((1-methyl-2-(trifluoromethyl)-1H-benzo[d]imidazol-5-yl)ethynyl)-1H-pyrazolo[3,4-d]pyrimidin-1-yl)-2-(methoxymethyl)pyrrolidin-1-yl)prop-2-en-1-one]
5 | ≤ 100 | C=CC(=O)N1C[C@@H](n2nc(C#Cc3ccc4c(c3)nc(C(F)(F)F)n4C)c3c(N)nccc32)C[C@@H]1COC [Example 47, 1-((2R,4S)-4-(4-amino-3-((1-methyl-2-(trifluoromethyl)-1H-benzo[d]imidazol-5-yl)ethynyl)-1H-pyrazolo[4,3-c]pyridin-1-yl)-2-(methoxymethyl)pyrrolidin-1-yl)prop-2-en-1-one]
6 | ≤ 100 | C=CC(=O)N1C[C@@H](n2nc(C#Cc3c(F)cc4c(cnn4C)c3F)c3c(N)ncnc32)C[C@@H]1COC [Example 48, 1-((2R,4S)-4-(4-amino-3-((4,6-difluoro-1-methyl-1H-indazol-5-yl)ethynyl)-1H-pyrazolo[3,4-d]pyrimidin-1-yl)-2-(methoxymethyl)pyrrolidin-1-yl)prop-2-en-1-one]
7 | 100 to 1000 | C=CC(=O)N1C[C@@H](n2nc(C#Cc3c(F)cc4nn(CC)cc4c3F)c3c(N)ncnc32)C[C@@H]1COC [Example 49, 1-((2R,4S)-4-(4-amino-3-((2-ethyl-4,6-difluoro-2H-indazol-5-yl)ethynyl)-1H-pyrazolo[3,4-d]pyrimidin-1-yl)-2-(methoxymethyl)pyrrolidin-1-yl)prop-2-en-1-one]
8 | ≤ 100 | C=CC(=O)N1C[C@@H](n2nc(C#Cc3c(F)cc4c(cnn4C)c3F)c3c(N)nccc32)C[C@@H]1COC [Example 50, 1-((2R,4S)-4-(4-amino-3-((4,6-difluoro-1-methyl-1H-indazol-5-yl)ethynyl)-1H-pyrazolo[4,3-c]pyridin-1-yl)-2-(methoxymethyl)pyrrolidin-1-yl)prop-2-en-1-one]
9 | 100 to 1000 | C=CC(=O)N1C[C@@H](n2nc(C#Cc3c(F)cc4nn(CC)cc4c3F)c3c(N)nccc32)C[C@@H]1COC [Example 51, 1-((2R,4S)-4-(4-amino-3-((2-ethyl-4,6-difluoro-2H-indazol-5-yl)ethynyl)-1H-pyrazolo[4,3-c]pyridin-1-yl)-2-(methoxymethyl)pyrrolidin-1-yl)prop-2-en-1-one]
10 | ≤ 100 | C=CC(=O)N1C[C@@H](n2nc(C#Cc3ccc4c(c3)nc(C)n4CC)c3c(N)ncnc32)C[C@@H]1CC#N [Example 52, 2-((2R,4S)-1-acryloyl-4-(4-amino-3-((1-ethyl-2-methyl-1H-benzo[d]imidazol-5-yl)ethynyl)-1H-pyrazolo[3,4-d]pyrimidin-1-yl)pyrrolidin-2-yl)acetonitrile]
11 | ≤ 100 | C=CC(=O)N1C[C@@H](n2nc(C#Cc3ccc4c(c3)nc(C)n4CC)c3c(N)nccc32)C[C@@H]1CC#N [Example 53, 2-[(2R,4S)-4-[4-Amino-3-[2-(1-ethyl-2-methyl-1,3-benzodiazol-5-yl)ethynyl]pyrazolo[4,3-c]pyridin-1-yl]-1-(prop-2-enoyl)pyrrolidin-2-yl]acetonitrile; formic acid]
12 | ≤ 100 | C=CC(=O)N1C[C@@H](n2nc(C#Cc3c(F)cc4c(ncn4C)c3F)c3c(N)ncnc32)C[C@@H]1COC(F)(F)F [Example 54, 1-[(2R,4S)-4-[4-Amino-3-[2-(4,6-difluoro-1-methyl-1,3-benzodiazol-5-yl)ethynyl]pyrazolo[3,4-d]pyrimidin-1-yl]-2-[(trifluoromethoxy)methyl]pyrrolidin-1-yl]prop-2-en-1-one]

Further lines, the compound ahead of its results:

Row | SMILES | IC50 [nM]
13 | C=CC(=O)N1C[C@@H](n2nc(C#Cc3c(F)cc4c(nc(C)n4CC)c3F)c3c(N)ncnc32)C[C@@H]1COC [Example 32, 1-((2R,4S)-4-(4-amino-3-((1-ethyl-4,6-difluoro-2-methyl-1H-benzo[d]imidazol-5-yl)ethynyl)-1H-pyrazolo[3,4-d]pyrimidin-1-yl)-2-(methoxymethyl)pyrrolidin-1-yl)prop-2-en-1-one] | ≤ 100
14 | C=CC(=O)N1C[C@@H](n2nc(C#Cc3c(F)cc4c(nc(C)n4CC)c3F)c3c(N)nccc32)C[C@@H]1COC [Example 33, 1-((2R,4S)-4-(4-amino-3-((1-ethyl-4,6-difluoro-2-methyl-1H-benzo[d]imidazol-5-yl)ethynyl)-1H-pyrazolo[4,3-c]pyridin-1-yl)-2-(methoxymethyl)pyrrolidin-1-yl)prop-2-en-1-one] | ≤ 100
15 | C=CC(=O)N1C[C@@H](n2nc(C#Cc3ccc4c(cnn4CC)c3)c3c(N)ncnc32)C[C@@H]1COC [Example 34, 1-((2R,4S)-4-(4-amino-3-((1-ethyl-1H-indazol-5-yl)ethynyl)-1H-pyrazolo[3,4-d]pyrimidin-1-yl)-2-(methoxymethyl)pyrrolidin-1-yl)prop-2-en-1-one] | ≤ 100
16 | C=CC(=O)N1C[C@@H](n2nc(C#Cc3ccc4c(cnn4C)c3)c3c(N)nccc32)C[C@@H]1COC [Example 35, 1-[(2R,4S)-4-[4-amino-3-[2-(1-methylindazol-5-yl)ethynyl]pyrazolo[4,3-c]pyridin-1-yl]-2-(methoxymethyl)pyrrolidin-1-yl]prop-2-en-1-one] | 100 to 1000
17 | C=CC(=O)N1C[C@@H](n2nc(C#Cc3ccc4nn(C)cc4c3)c3c(N)nccc32)C[C@@H]1COC [Example 36, 1-[(2R,4S)-4-[4-amino-3-[2-(2-methylindazol-5-yl)ethynyl]pyrazolo[4,3-c]pyridin-1-yl]-2-(methoxymethyl)pyrrolidin-1-yl]prop-2-en-1-one] | 100 to 1000
18 | C=CC(=O)N1C[C@@H](n2nc(C#Cc3ccc4c(cnn4CC)c3)c3c(N)nccc32)C[C@@H]1COC [Example 37, 1-((2R,4S)-4-(4-amino-3-((1-ethyl-1H-indazol-5-yl)ethynyl)-1H-pyrazolo[4,3-c]pyridin-1-yl)-2-(methoxymethyl)pyrrolidin-1-yl)prop-2-en-1-one] | ≤ 100
19 | C=CC(=O)N1C[C@@H](n2nc(C#Cc3ccc4nn(CC)cc4c3)c3c(N)nccc32)C[C@@H]1COC [Example 38, 1-[(2R,4S)-4-[4-amino-3-[2-(2-ethylindazol-5-yl)ethynyl]pyrazolo[4,3-c]pyridin-1-yl]-2-(methoxymethyl)pyrrolidin-1-yl]prop-2-en-1-one] | 1000 to 10000
20 | C=CC(=O)N1C[C@@H](n2nc(C#Cc3c(F)cc4c(nc(C)n4C)c3F)c3c(N)nccc32)C[C@@H]1CC#N [Example 39, 2-((2R,4S)-1-acryloyl-4-(4-amino-3-((4,6-difluoro-1,2-dimethyl-1H-benzo[d]imidazol-5-yl)ethynyl)-1H-pyrazolo[4,3-c]pyridin-1-yl)pyrrolidin-2-yl)acetonitrile] | ≤ 100
21 | C=CC(=O)N1C[C@@H](n2nc(C#Cc3ccc4c(cnn4C)c3)c3c(N)ncnc32)C[C@@H]1COC [Example 40, 1-((2R,4S)-4-(4-amino-3-((1-methyl-1H-indazol-5-yl)ethynyl)-1H-pyrazolo[3,4-d]pyrimidin-1-yl)-2-(methoxymethyl)pyrrolidin-1-yl)prop-2-en-1-one] | ≤ 100
22 | C=CC(=O)N1C[C@@H](n2nc(C#Cc3ccc4nn(C)cc4c3)c3c(N)ncnc32)C[C@@H]1COC [Example 41, 1-[(2R,4S)-4-[4-amino-3-[2-(2-methylindazol-5-yl)ethynyl]pyrazolo[3,4-d]pyrimidin-1-yl]-2-(methoxymethyl)pyrrolidin-1-yl]prop-2-en-1-one] | 100 to 1000
23 | C=CC(=O)N1C[C@@H](n2nc(C#Cc3ccc4nn(CC)cc4c3)c3c(N)ncnc32)C[C@@H]1COC [Example 42, 1-[(2R,4S)-4-[4-amino-3-[2-(2-ethylindazol-5-yl)ethynyl]pyrazolo[3,4-d]pyrimidin-1-yl]-2-(methoxymethyl)pyrrolidin-1-yl]prop-2-en-1-one] | 100 to 1000
